Test results taken from the supplement of paper PMC10307832.

Legend:
Assay in all cases: relative viability (nuclei count vs DMSO), 5 days (fraction); higher = more cells survive
[1] = compound: C1=CC2=NC=CN=C2C=C1/C=C/3\C(=O)NC(=O)S3 + CS(=O)(=O)CCNCc1ccc(-c2ccc3ncnc(Nc4ccc(OCc5cccc(F)c5)c(Cl)c4)c3c2)o1 [Lapatinib] (partner 2 µM)
Outline: (§1)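 Relative viability equals treated-well nuclei counts divided by vehicle-well nuclei counts. Counts came from 4× images of lung cancer cell lines grown in 1536-well plates for 5 days after pin-tool dosing on the day after seeding. Dosing used one drug alone or a fixed anchor-drug dose plus five library-drug doses (not always all listed) in √10 steps, and values are medians of duplicate plates.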

[2] = compound: C1=CC2=NC=CN=C2C=C1/C=C/3\C(=O)NC(=O)S3 + Cc1nc(Nc2ncc(C(=O)Nc3c(C)cccc3Cl)s2)cc(N2CCN(CCO)CC2)n1 [Dasatinib] (partner 0.075 µM)
Outline: as §1

[3] = compound: CCN1CCN(c2ccc(Nc3cc(N(C)C(=O)Nc4c(Cl)c(OC)cc(OC)c4Cl)ncn3)cc2)CC1 [BGJ398] + C[C@@H](Oc1cc(-c2cnn(C3CCNCC3)c2)cnc1N)c1c(Cl)ccc(F)c1Cl [Crizotinib] (partner 1 µM)
Outline: as §1

[4] = compound: CCN1CCN(c2ccc(Nc3cc(N(C)C(=O)Nc4c(Cl)c(OC)cc(OC)c4Cl)ncn3)cc2)CC1 [BGJ398] + O=C(c1cc(Cc2n[nH]c(=O)c3ccccc23)ccc1F)N1CCN(C(=O)C2CC2)CC1 [Olaparib] (partner 8 µM)
Outline: as §1

Cell Line	relative viability ([1]; first compound 0.02 µM)	relative viability ([1]; first compound 0.06325 µM)	relative viability ([1]; first compound 0.2 µM)	relative viability ([1]; first compound 0.6325 µM)	relative viability ([1]; first compound 2 µM)	relative viability ([2]; first compound 0.02 µM)	relative viability ([2]; first compound 0.06325 µM)	relative viability ([2]; first compound 0.2 µM)	relative viability ([2]; first compound 0.6325 µM)	relative viability ([2]; first compound 2 µM)	relative viability ([3]; first compound 0.01 µM)	relative viability ([3]; first compound 0.03162 µM)	relative viability ([3]; first compound 0.1 µM)	relative viability ([3]; first compound 0.3162 µM)	relative viability ([3]; first compound 1 µM)	relative viability ([4]; first compound 0.01 µM)	relative viability ([4]; first compound 0.03162 µM)	relative viability ([4]; first compound 0.1 µM)	relative viability ([4]; first compound 0.3162 µM)	relative viability ([4]; first compound 1 µM)
201T	0.854	1.02	0.979	0.972	0.8	0.543	0.619	0.583	0.556	0.28	1.12	0.988	0.996	1.01	0.981	0.907	0.791	0.858	0.822	0.843
A549	0.893	1.04	1.04	0.9	0.874						0.73	0.811	0.758	0.843	0.783	0.341	0.436	0.6	0.231	0.231
A-427	1.03	1.04	1.07	0.994	1.08	0.685	0.753	0.692	0.659	0.541	0.905	0.72	0.698	0.598	0.517	0.746	0.713	0.761	0.736	0.538
ABC-1	1.06	0.754	1.18	1	1.02	0.507	0.757	0.488	0.611	0.538	1.05	1.36	1.19	0.925	1.42	0.864	0.934	0.887		0.616
BEN	0.624	0.754	0.817	0.608	0.505	0.362	0.35	0.297	0.352	0.252	0.735	0.871	0.893	0.81	0.797	1.09	1.19	1.18	0.991	0.861
CAL-12T	0.512	0.708	0.659	0.629	0.751	0.417	0.34	0.439	0.304	0.139	0.68	0.796	0.548	0.811	0.631	0.688	0.819	0.613	0.773	0.666
COR-L23	0.832	1.31	0.921	0.771	0.923	0.446	0.481	0.395	0.477	0.344	0.588	0.826	0.598	0.762	0.653	0.337	0.337	0.308	0.337	0.313
COR-L 105	0.332	0.343	0.368	0.335	0.289	0.343	0.344	0.376	0.402	0.279	0.737	0.844	0.879	0.86	0.819	0.627	0.647	0.687	0.733	0.639
Calu-6	1.05	1.14	0.97	1.06	1						0.737	0.86	0.948	0.745	0.781	0.599	0.605	0.578	0.58	0.59
ChaGo-K-1						0.611	0.574	0.596	0.544	0.499	1.09	1.18	1.21	0.991	1.05	0.42	0.423	0.437	0.387	0.434
EBC-1	0.221	0.203	0.191	0.189	0.231						0.198	0.201	0.17	0.199	0.197	0.717	0.717	0.679	0.737	0.668
EKVX	0.215	0.18	0.251	0.207	0.146	0.515	0.356	0.701	0.524	0.427	0.819	0.919	0.901	0.991	0.917	0.872	0.884	0.812	0.74	0.696
EMC-BAC-2	0.829	0.96	0.962	0.762	0.555	0.309	0.297	0.33	0.322	0.224	0.726	0.816	0.798	0.746	0.669	0.456	0.568	0.519	0.547	0.456
EPLC-272H	0.895	1.18	1.11	0.916	0.576	0.43	0.462	0.421	0.294	0.153	0.903	0.814	0.964	0.8	0.968	0.626	0.829	0.594	0.797	0.656
H3255	0.318	0.241	0.282	0.238	0.217	0.365	0.329	0.348	0.379	0.38	0.798		0.877	0.634	0.829	0.527	0.537	0.604	0.551	0.55
HARA	0.668	0.984	0.997	0.633	0.31	0.278	0.315	0.3	0.243	0.194	0.953	1.06	1.04	1.02	1.07	0.983	0.651	0.875	0.902	0.722
HCC-15	0.84	0.87	0.881	0.792	0.84	0.665	0.644	0.687	0.55	0.42	0.861	0.825	0.782	0.885	0.9	0.699	0.749	0.712	0.732	0.725
HCC-44	0.961	1.09	0.975	0.993	0.793						0.751	0.738	0.86	0.817	0.701	0.963	0.952	1.02	0.931	0.953
HCC-78	0.701	0.729	0.91	0.554	0.168	0.381	0.705	0.517	0.392	0.184	0.379	0.313	0.394	0.334	0.348	0.785	0.838	0.967	0.78	0.823

Cell Line	relative viability ([1]; first compound 0.02 µM)	relative viability ([1]; first compound 0.06325 µM)	relative viability ([1]; first compound 0.2 µM)	relative viability ([1]; first compound 0.6325 µM)	relative viability ([1]; first compound 2 µM)	relative viability ([2]; first compound 0.02 µM)	relative viability ([2]; first compound 0.06325 µM)	relative viability ([2]; first compound 0.2 µM)	relative viability ([2]; first compound 0.6325 µM)	relative viability ([2]; first compound 2 µM)	relative viability ([3]; first compound 0.01 µM)	relative viability ([3]; first compound 0.03162 µM)	relative viability ([3]; first compound 0.1 µM)	relative viability ([3]; first compound 0.3162 µM)	relative viability ([3]; first compound 1 µM)	relative viability ([4]; first compound 0.01 µM)	relative viability ([4]; first compound 0.03162 µM)	relative viability ([4]; first compound 0.1 µM)	relative viability ([4]; first compound 0.3162 µM)	relative viability ([4]; first compound 1 µM)
HCC-366	0.999	0.927	1.03	0.905	1.04	0.613		0.645	0.552	0.0998	0.474	0.66	0.768	0.627	0.59	0.368	0.378	0.422	0.335	0.448
HCC-827	0.217	0.247	0.209	0.215	0.233	0.338	0.194	0.267	0.301	0.266	0.964		0.92	0.973	0.938	0.468		0.583	0.482	0.628
HOP-62	1.04	0.796	0.944	1.05	0.958	0.651	0.736	0.605	0.621	0.503	0.755	1	0.861	1.13	0.737	0.291	0.525	0.538	0.349	0.558
IA-LM	0.69		0.698	0.771	0.65						0.91	0.996	0.657	0.908	0.793	0.772	0.841	0.917	0.742	0.79
LC-2-ad	0.927	1.04	0.949	0.924	0.797	0.843	0.528	0.746	0.622	0.256	0.446	0.451	0.444	0.487	0.476	0.766	0.759	0.694	0.677	0.749
LCLC-97TM1	0.751	1.12	1.73	0.817	0.27	0.974	0.762	0.775	0.8	0.306	0.34	0.335	0.317	0.463	0.267	0.294	0.393	0.443	0.508	0.277
LCLC-103H						0.427	0.571	0.474	0.461	0.214	1.02	1.03	1.03	0.96	0.827	0.756	0.787	0.726	0.717	0.596
LK-2	1.01	0.992	0.934	0.825	0.481	0.291	0.349	0.306	0.297	0.189	0.206	0.227	0.214	0.224	0.231	0.624	0.532	0.374	0.186	0.227
LOU-NH91	0.734	0.786	0.81	0.739	0.585	0.568	0.597	0.551	0.525	0.354	0.724	0.506	0.688	0.569	0.728	0.884	0.707	0.92	0.699	0.927
NCI-H441						0.797	0.526	0.7	0.573	0.281	0.601	0.841	0.778	0.691	0.783		0.619	0.483	0.555	0.536
NCI-H522						0.899	1.06	0.942	1.09	0.714						0.714	0.684	0.607	0.651	0.621
NCI-H1299	0.962	1.04	0.946	0.965	0.993						0.94	0.864	0.951	0.969	0.97	0.961	0.971	0.977	1	0.999
NCI-H1395	1.13	1.06	1.46	0.935	0.963	0.44	0.386	0.417	0.417	0.354						0.441	0.426	0.434	0.428	0.409
NCI-H1563	0.876	0.854	0.898	0.867	0.873	0.477	0.435	0.523	0.486	0.316	0.875	0.812	0.846	0.794	0.728					
NCI-H1648																0.658		1.18	0.85	0.487
NCI-H1703	1.06	1.29	1.07	0.946	0.89						0.694	1.17	0.796	0.638	0.863	0.342	0.396	0.379	0.364	0.543
NCI-H1793	0.702	0.532	0.832	0.725	0.773	0.407	0.39	0.368	0.354	0.328						0.828	0.721	1.02	0.824	0.739
NCI-H2342						0.305	0.315	0.334	0.309	0.283						0.517	0.46	0.541	0.482	0.444
SW 900						0.499	0.788	0.625	0.883	0.486						0.867	0.822	0.851	0.679	0.761
